Measurements published in the NIST ThermoML archive (doi:10.1021/je800942u).

Legend:
[1] = mn = molality of the nth substance listed, in mol/kg; details: 101 kPa, Liquid
[2] = wn = mass fraction of the nth substance listed; details: 101 kPa, Liquid
[3] = 101 kPa, Liquid

NCCCCCCN [1,6-hexanediamine] + CCO
[1]
Details	mass density [kg/m3]	viscosity [mPa·s]
303.15 K, m1 = 0.1293	782.3	1.011
303.15 K, m1 = 0.2808	784.2	1.053
303.15 K, m1 = 0.4406	786.3	1.102
303.15 K, m1 = 0.6113	788.6	1.162
303.15 K, m1 = 0.7834	791.1	1.202
303.15 K, m1 = 0.9637	793.8	1.258
308.15 K, m1 = 0.1293	777.9	0.9157
308.15 K, m1 = 0.2808	779.7	0.9505
308.15 K, m1 = 0.4406	781.9	0.9928
308.15 K, m1 = 0.6113	784.7	1.046
308.15 K, m1 = 0.7834	787.3	1.081
308.15 K, m1 = 0.9637	790.1	1.133
313.15 K, m1 = 0.1293	771.6	0.8341
313.15 K, m1 = 0.2808	773.3	0.8606
313.15 K, m1 = 0.4406	775.2	0.8994
313.15 K, m1 = 0.6113	777.2	0.9437
313.15 K, m1 = 0.7834	779.3	0.975
313.15 K, m1 = 0.9637	781.5	1.019
318.15 K, m1 = 0.1293	766.4	0.7569
318.15 K, m1 = 0.2808	767.9	0.7849
318.15 K, m1 = 0.4406	769.6	0.8154
318.15 K, m1 = 0.6113	771.4	0.8571
318.15 K, m1 = 0.7834	773.3	0.8816
318.15 K, m1 = 0.9637	775.3	0.9201
323.15 K, m1 = 0.1293	761.4	0.6866
323.15 K, m1 = 0.2808	762.8	0.7105
323.15 K, m1 = 0.4406	764.3	0.7356
323.15 K, m1 = 0.6113	766	0.7761
323.15 K, m1 = 0.7834	767.8	0.798
323.15 K, m1 = 0.9637	769.7	0.8301
328.15 K, m1 = 0.1293	755.5	0.6275
328.15 K, m1 = 0.2808	756.8	0.6485
328.15 K, m1 = 0.4406	758.3	0.6737
328.15 K, m1 = 0.6113	759.9	0.7013
328.15 K, m1 = 0.7834	761.6	0.7227
328.15 K, m1 = 0.9637	763.4	0.7564

CCO [ethanol] + NCCCCCCN
[1], m2 = 0
Details	mass density [kg/m3]	viscosity [mPa·s]
303.15 K	780.8	0.979
308.15 K	776.5	0.8877
313.15 K	770.3	0.8086
318.15 K	765.2	0.7335
323.15 K	760.3	0.6677
328.15 K	754.5	0.6104

CCO [ethanol] + O
[2]
Details	mass density, w2 = 0.15 [kg/m3]	mass density, w2 = 0.2 [kg/m3]	mass density, w2 = 0.25 [kg/m3]	viscosity, w2 = 0.15 [mPa·s]	viscosity, w2 = 0.2 [mPa·s]	viscosity, w2 = 0.25 [mPa·s]
303.15 K	822.7	836	848.8	1.383	1.511	1.611
308.15 K	818.4	831.8	843	1.222	1.332	1.402
313.15 K	813.1	827.1	838.2	1.085	1.174	1.229
318.15 K	807.1	821	833.6	0.9649	1.025	1.085
323.15 K	801.4	814.6	827.5	0.8601	0.9113	0.9573
328.15 K	796.9	809.1	822.5	0.7734	0.8123	0.8538

CCO [ethanol]
[3]
Details	mass density [kg/m3]	viscosity [mPa·s]
303.15 K	780.8	0.979
308.15 K	776.5	0.8877
313.15 K	770.3	0.8086
318.15 K	765.2	0.7335
323.15 K	760.3	0.6677
328.15 K	754.5	0.6104
